Columns and labels:
[1] = target: T1, Okp1(EYAA)‐Ame1 (Saccharomyces cerevisiae, UniProt P38313+P53298, E235A/Y238A); assay: biochemical; format: binding
T1 construct: Full‐length mutant Okp1‐Ame1 complex (EYAA or I195Y as indicated) was tested for its association with FITC‐Cse4^END; 6His (C); made in house; host or cells: E. coli
Description: (§1) Results of a GST pulldown assay are shown. • The minimal Okp1‐Ame1 complex used for crystallography was tested for its association with FITC‐Cse4^END in a fluorescence polarization experiment.
(§2) Fluorescence polarization assays
(§3) FITC‐Cse4^28‐60 peptide was synthesized by the Tufts University Core Facility. 20 nM of FITC‐Cse4^28‐60 peptide was used in all reactions, and Okp1‐Ame1 concentrations were varied to determine the dissociation constant (K D ), in reaction buffer containing 100 mM HEPES, pH 7.5, 200 mM NaCl, 1 mM TCEP (full‐length Okp1‐Ame1 complex) or reaction buffer with 600 mM NaCl (truncated Okp1‐Ame1 complex).

[2] = target: T2, Okp1‐Ame1(I195Y) (Saccharomyces cerevisiae, UniProt P38313+P53298, I195Y); assay: biochemical; format: binding
T2 construct: Full‐length mutant Okp1‐Ame1 complex (EYAA or I195Y as indicated) was tested for its association with FITC‐Cse4^END; 6His (C); made in house; host or cells: E. coli
T2 sequence (P38313 whole entry I195Y): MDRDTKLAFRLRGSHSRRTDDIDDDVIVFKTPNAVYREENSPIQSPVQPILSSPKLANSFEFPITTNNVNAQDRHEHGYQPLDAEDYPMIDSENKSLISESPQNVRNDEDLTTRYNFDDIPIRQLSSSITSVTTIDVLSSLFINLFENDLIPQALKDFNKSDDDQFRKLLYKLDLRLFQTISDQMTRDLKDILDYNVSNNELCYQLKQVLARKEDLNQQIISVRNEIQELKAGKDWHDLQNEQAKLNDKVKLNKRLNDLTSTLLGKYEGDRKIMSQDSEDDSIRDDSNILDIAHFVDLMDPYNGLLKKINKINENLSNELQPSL
T2 sequence (P53298 whole entry): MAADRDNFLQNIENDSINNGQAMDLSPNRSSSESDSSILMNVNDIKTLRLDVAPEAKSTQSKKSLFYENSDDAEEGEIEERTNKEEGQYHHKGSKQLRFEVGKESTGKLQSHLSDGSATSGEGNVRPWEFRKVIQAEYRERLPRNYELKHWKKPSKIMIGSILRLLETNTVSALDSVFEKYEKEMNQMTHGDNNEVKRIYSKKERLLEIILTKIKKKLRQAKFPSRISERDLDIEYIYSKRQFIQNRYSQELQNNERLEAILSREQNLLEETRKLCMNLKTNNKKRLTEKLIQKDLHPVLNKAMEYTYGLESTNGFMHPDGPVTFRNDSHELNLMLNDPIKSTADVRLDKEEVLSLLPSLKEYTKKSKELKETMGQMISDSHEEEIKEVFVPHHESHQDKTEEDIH
Description: as §1, §2, §3

T1 sequence (P38313 whole entry): as the sequence (P38313 whole entry I195Y) above, with Y195I counted along it
T1 sequence (P53298 whole entry E235A/Y238A): as the sequence (P53298 whole entry) above, with E235A, Y238A counted along it

For `CC[C@H](C)[C@H](NC(=O)[C@H](CO)NC(=O)[C@H](CCC(N)=O)NC(=O)[C@H](CCC(N)=O)NC(=O)[C@H](CC(=O)O)NC(=O)CNC(=O)[C@H](C)N)C(=O)N[C@@H](CC(N)=O)C(=O)N[C@@H](CC(=O)O)C(=O)N[C@@H](CCCNC(=N)N)C(=O)N[C@@H](C)C(=O)N[C@@H](CC(C)C)C(=O)N[C@@H](CO)C(=O)N[C@@H](CC(C)C)C(=O)N[C@@H](CC(C)C)C(=O)N[C@@H](CCC(N)=O)C(=O)N[C@@H](CCCNC(=N)N)C(=O)N[C@H](C(=O)N[C@@H](CCCNC(=N)N)C(=O)N[C@@H](C)C(=O)N[C@H](C(=O)N[C@@H](CCCCN)C(=O)N[C@@H](CC(N)=O)C(=O)N[C@@H](CC(C)C)C(=O)N[C@@H](Cc1ccccc1)C(=O)N1CCC[C@H]1C(=O)N[C@@H](CCCNC(=N)N)C(=O)N[C@@H](CCCNC(=N)N)C(=O)N[C@@H](CCC(=O)O)C(=O)N[C@@H](CCC(=O)O)C(=O)N[C@@H](CCCNC(=N)N)C(=O)N[C@@H](CCCNC(=N)N)C(=O)N[C@@H](CCCNC(=N)N)C(=O)O)[C@@H](C)O)[C@@H](C)O` [Cse4^END], the Kd [1] was over 3 µM and the Kd [2] was over 3 µM.

Source: PMC10702835, “Recognition of centromere‐specific histone Cse4 by the inner kinetochore Okp1‐Ame1 complex” (EMBO Reports, 2023)
